Columns and labels:
Type in all cases: physicochemical
[1] = Storage stability study of solid forms, HPLC purity (Example 11); conditions: for % of Initial / Purity (area %): 10% RH
Experimental: (§1) Form A and F samples were placed in chambers with silica gel to remove water (the relative humidity was measured to be ˜10% RH) at different temperatures. Form D samples were placed in chambers with water (relative humidity was estimated to be ˜100% RH) at different temperatures.
(§2) The HPLC purities and XRD patterns were obtained for each of Form A/F/D samples stored at various temperatures.

[2] = Storage stability study of solid forms, form change by XRD (Example 11); conditions: 10% RH
Experimental: For X-ray powder diffraction analysis, a PANalytical Empyrean X-ray powder diffractometer was used. The parameters are as follows:
as §1, §2

[3] = Physical form stability to grinding and sieving (XRD before and after)
Experimental: A sample of sepiapterin free base was obtained commercially. […] The sepiapterin sample contained particles with an average particle size over 100 μm. The XRD pattern was determined before and after grinding to reduce the particle size such that it passes through a 140 mesh screen. This polymorph of sepiapterin free base is referred to as Form A herein.

[4] = Storage stability of polymorphs, HPLC sepiapterin and impurity profile (Example 12); parameters: Impurity RRT 1.06 / Impurity RRT 1.08 / Impurity RRT 1.17 / Impurity RRT 1.21 / Impurity RRT 1.25 / Impurity RRT 0.62 / Impurity RRT 0.89 / Impurity RRT 0.95 / Impurity RRT 0.60: unit not given here
Experimental: Samples of sepiapterin free base polymorph Forms D, F, and A were stored at room temperature (RT), 35° C., and 50° C. The samples were analyzed by HPLC at 1 week and 4 week intervals. The HPLC parameters were as follows: [table]

[5] = 35° C./10% RH, 1 w, listed as Polymorph A
[6] = 35° C./10% RH, 4 w, listed as Polymorph A
[7] = 50° C./10% RH, 1 w, listed as Polymorph A
[8] = 50° C./10% RH, 4 w, listed as Polymorph A
[9] = RT/10% RH, 1 w, listed as Polymorph A
[10] = RT/10% RH, 4 w, listed as Polymorph A

SMILES: C[C@H](O)C(=O)C1=Nc2c(nc(N)[nH]c2=O)NC1 [Form A, sepiapterin]
- % of Initial ([1]; 35° C., storage 1 week): 98.6%
- Purity (area %) ([1]; 35° C., storage 1 week): 98.0 area %
- % of Initial ([1]; 35° C., storage 4 weeks): 96.7%
- Purity (area %) ([1]; 35° C., storage 4 weeks): 96.1 area %
- % of Initial ([1]; 50° C., storage 1 week): 95.8%
- Purity (area %) ([1]; 50° C., storage 1 week): 95.2 area %
- % of Initial ([1]; 50° C., storage 4 weeks): 89.1%
- Purity (area %) ([1]; 50° C., storage 4 weeks): 88.5 area %
- % of Initial ([1]; RT, storage 1 week): 99.5%
- Purity (area %) ([1]; RT, storage 1 week): 98.8 area %
- % of Initial ([1]; RT, storage 4 weeks): 98.8%
- Purity (area %) ([1]; RT, storage 4 weeks): 98.2 area %
- purity of initial samples by HPLC ([1]; initial, before storage): 99.3 area %
- stability as determined by HPLC (in words) ([1]; storage at RT, 35° C., 50° C., 1 and 4 weeks): significantly less stability
- Form change ([2]; 35° C., storage 1 week): No
- Form change ([2]; 35° C., storage 4 weeks): No
- Form change ([2]; 50° C., storage 1 week): No
- Form change ([2]; 50° C., storage 4 weeks): No
- Form change ([2]; RT, storage 1 week): No
- Form change ([2]; RT, storage 4 weeks): No
- physical form stability to grinding and sieving [3]: confirms the physical form stability
- Impurity RRT 0.62 ([4]; 35° C./10% RH, 1 w): 0.24
- Impurity RRT 0.89 ([4]; 35° C./10% RH, 1 w): <0.05
- Impurity RRT 1.06 ([4]; 35° C./10% RH, 1 w): <0.05
- Impurity RRT 1.21 ([4]; 35° C./10% RH, 1 w): <0.05
- Impurity RRT 1.25 ([4]; 35° C./10% RH, 1 w): <0.05
- Impurity RRT 0.95 [4, 5]: 1.36
- Impurity RRT 1.08 [4, 5]: 0.28
- Impurity RRT 1.17 [4, 5]: 0.16
- Sepiapterin RRT 1.00 (amount of sepiapterin) [4, 5]: 97.97%
- Impurity RRT 0.62 ([4]; 35° C./10% RH, 4 w): 1.03
- Impurity RRT 0.89 ([4]; 35° C./10% RH, 4 w): <0.05
- Impurity RRT 1.06 ([4]; 35° C./10% RH, 4 w): <0.05
- Impurity RRT 1.08 ([4]; 35° C./10% RH, 4 w): <0.05
- Impurity RRT 1.21 ([4]; 35° C./10% RH, 4 w): <0.05
- Impurity RRT 1.25 ([4]; 35° C./10% RH, 4 w): <0.05
- Impurity RRT 0.95 [4, 6]: 2.70
- Impurity RRT 1.17 [4, 6]: 0.16
- Sepiapterin RRT 1.00 (amount of sepiapterin) [4, 6]: 96.06%
- Impurity RRT 0.62 ([4]; 50° C./10% RH, 1 w): 0.68
- Impurity RRT 0.89 ([4]; 50° C./10% RH, 1 w): <0.05
- Impurity RRT 1.06 ([4]; 50° C./10% RH, 1 w): 0.45
- Impurity RRT 1.21 ([4]; 50° C./10% RH, 1 w): <0.05
- Impurity RRT 1.25 ([4]; 50° C./10% RH, 1 w): <0.05
- Impurity RRT 0.95 [4, 7]: 3.48
- Impurity RRT 1.08 [4, 7]: 0.08
- Impurity RRT 1.17 [4, 7]: 0.16
- Sepiapterin RRT 1.00 (amount of sepiapterin) [4, 7]: 95.15%
- Impurity RRT 0.62 ([4]; 50° C./10% RH, 4 w): 2.59
- Impurity RRT 0.89 ([4]; 50° C./10% RH, 4 w): 0.06
- Impurity RRT 1.06 ([4]; 50° C./10% RH, 4 w): <0.05
- Impurity RRT 1.17 ([4]; 50° C./10% RH, 4 w): 0.17
- Impurity RRT 1.21 ([4]; 50° C./10% RH, 4 w): 0.06
- Impurity RRT 1.25 ([4]; 50° C./10% RH, 4 w): 0.11
- Impurity RRT 0.95 [4, 8]: 7.67
- Impurity RRT 1.08 [4, 8]: 0.85
- Sepiapterin RRT 1.00 (amount of sepiapterin) [4, 8]: 88.49%
- Sepiapterin RRT 1.00 (amount of sepiapterin) ([4]; 50° C./10% RH, 4 w, listed as polymorph A): 88.49%
- Impurity RRT 0.89 ([4]; Initial): <0.05
- Impurity RRT 1.06 ([4]; Initial): <0.05
- Impurity RRT 1.08 ([4]; Initial): <0.05
- Impurity RRT 1.17 ([4]; Initial): 0.17
- Impurity RRT 1.21 ([4]; Initial): <0.05
- Impurity RRT 1.25 ([4]; Initial): <0.05
- Impurity RRT 0.62 ([4]; Initial, listed as Polymorph A): 0.08
- Impurity RRT 0.95 ([4]; Initial, listed as Polymorph A): 0.42
- Sepiapterin RRT 1.00 (amount of sepiapterin) ([4]; Initial, listed as Polymorph A): 99.33%
- Sepiapterin RRT 1.00 (amount of sepiapterin) ([4]; Initial, listed as polymorph A): 99.33%
- Impurity RRT 0.62 ([4]; RT/10% RH, 1 w): 0.16
- Impurity RRT 0.89 ([4]; RT/10% RH, 1 w): <0.05
- Impurity RRT 1.06 ([4]; RT/10% RH, 1 w): <0.05
- Impurity RRT 1.17 ([4]; RT/10% RH, 1 w): 0.16
- Impurity RRT 1.21 ([4]; RT/10% RH, 1 w): <0.05
- Impurity RRT 1.25 ([4]; RT/10% RH, 1 w): <0.05
- Impurity RRT 0.95 [4, 9]: 0.77
- Impurity RRT 1.08 [4, 9]: 0.11
- Sepiapterin RRT 1.00 (amount of sepiapterin) [4, 9]: 98.80%
- Impurity RRT 0.62 ([4]; RT/10% RH, 4 w): 0.37
- Impurity RRT 0.89 ([4]; RT/10% RH, 4 w): <0.05
- Impurity RRT 1.06 ([4]; RT/10% RH, 4 w): <0.05
- Impurity RRT 1.08 ([4]; RT/10% RH, 4 w): <0.05
- Impurity RRT 1.17 ([4]; RT/10% RH, 4 w): 0.16
- Impurity RRT 1.21 ([4]; RT/10% RH, 4 w): <0.05
- Impurity RRT 1.25 ([4]; RT/10% RH, 4 w): <0.05
- Impurity RRT 0.95 [4, 10]: 1.29
- Sepiapterin RRT 1.00 (amount of sepiapterin) [4, 10]: 98.18%
